{"source": "patent US20090186839A1", "about": "“Model for studying the role of genes in chemoresistance” (Cold Spring Harbor Laboratory, priority 2003, published 2009)", "key": {"[1]": {"tested_on": "Eμ-myc/ARF−/− control lymphomas", "assay": "In vivo chemotherapy of mice bearing control (ARF-null) lymphomas", "design": "species or system mouse", "conditions": "CTX 300 mg/kg i.p.", "source_text": "(§3) Tumor cells were transplanted from the Akt-expressing tumors and from control tumors (Eμ-myc, arf^−/−, p53^+/+) into syngeneic, non-transgenic 6-10 week old C57BL/6 mice by tail vein injection [10^6 viable lymphoma cells in phosphate-buffered saline (PBS)] and recipient mice were monitored for tumor formation twice a week by palpation of the pre-scapular and cervical lymph-nodes. […] Following treatments, mice were monitored for immediate response and time to relapse by lymph node palpation and by blood smears (by tail artery bleeding) stained according to a modified Wright's protocol using the LeukoStat kit (Fisher Scientific, Pittsburgh, Pa.). The data were statistically evaluated.\nA ‘complete remission’ (CR) was defined as absence of any palpable tumor and the absence of leukemia, as examined by blood smears. ‘Tumor free survival’ was defined as the time between treatment and reappearance of a well-palpable lymphoma (Schmitt, C. A., et al., “Genetic analysis of chemoresistance in primary murine lymphomas,” Nat. Med. 6: 1029-1035 (2000)). ‘Overall survival’ was defined as the time between treatment and progression to a terminal stage at which the animals were sacrificed. Tumor free and overall survival data were analyzed in the Kaplan-Meier format using the log-rank (Mantel-Cox) test for statistical significance. […]"}, "[2]": {"tested_on": "Eμ-myc/Akt lymphomas", "assay": "In vivo chemotherapy of mice bearing Akt lymphomas", "design": "species or system mouse", "source_text": "as §3"}, "[3]": {"tested_on": "Eμ-Myc/eIF4E lymphomas", "assay": "In vivo chemotherapy of mice bearing eIF4E lymphomas", "design": "species or system mouse", "conditions": "for animals that had developed terminal lymphoma / reversal of DXR resistance / sensitization to DXR: Eμ-Myc/eIF4E tumors, silvestrol 0.2 mg/kg daily 5 days i.p.; for animals that had developed terminal lymphoma: by the 40 day time point, DXR once 10 mg/kg", "description": "A ‘complete remission’ (CR) was defined as absence of any palpable tumor and the absence of leukemia, as examined by blood smears. ‘Tumor free survival’ was defined as the time between treatment and reappearance of a well-palpable lymphoma (Schmitt, C. A., et al., “Genetic analysis of chemoresistance in primary murine lymphomas,” Nat. Med. 6: 1029-1035 (2000)). ‘Overall survival’ was defined as the time between treatment and progression to a terminal stage at which the animals were sacrificed. Tumor free and overall survival data were analyzed in the Kaplan-Meier format using the log-rank (Mantel-Cox) test for statistical significance. Whole body fluorescence imaging of living animals was performed as described (Schmitt, C. A., et al., “Dissecting p53 tumor suppressor functions in vivo,” Cancer Cell 1: 289-298 (2002) and Yang, M., et al., “Whole-body optical imaging of green fluorescent protein-expressing tumors and metastases.” Proc. Natl. Acad. Sci. USA 97: 1206-1211 (2000)).\nDoxorubicin (Sigma) and cyclophosphamide (Sigma) were dissolved in saline. In treatment studies, control lymphomas were ARF-null tumors arising in an Eμ-myc/ARF−/− background (Schmitt, C. A., et al., “INK4a/ARF mutations accelerate lymphomagenesis and promote chemoresistance by disabling p53,” Genes Dev. 13: 2670-2677 (1999)).\nPrimary tumors arising in Eμ-Myc/eIF4E mice were harvested and a total of 2×10^6 secondary lymphoma cells were injected into the tail veins of 6-8 week old female C57BL/6 (non-transgenic) mice. Upon tumor formation of palpable secondary tumors, mice were treated with i.p. administration of drug. The treatment schedule included an injection with DXR (once at 10 mg/kg), silvestrol (0.2 mg/kg daily for 5 days) or various combinations. DXR and silvestrol were diluted in 5.2% PEG400/5.2% Tween 80 immediately prior to i.p. injection. In combination studies, silvestrol was administered once daily for 5 consecutive days, with DXR administered on day 2. Mice were then palpated regularly and monitored for the disappearance or recurrence of tumors.\nData are presented as Kaplan-Meier plots using the log-rank (Mantel-Cox) test for statistical significance (SigmaStat software) in FIG. 29, showing the tumor free survival/time to relapse, and FIG. 30, showing the overall survival/time. Time to relapse for mice that were never tumor free was scored as ‘0’ days. Tumor free survival was defined as the time between treatment and reappearance of a palpable lymphoma. Overall survival was defined as the time between treatment and progression to a terminal stage at which the animals were sacrificed. […] With either compound alone, approximately 80% of the animals had developed terminal lymphoma by the 40 day time point. With a combination treatment of silvestrol and DXR, less than 30% of the animals had developed terminal lymphoma by the end test point, well over 60 days."}, "[4]": {"tested_on": "Eμ-myc/PTEN+/− tumors", "assay": "In vivo chemotherapy of mice bearing PTEN+/− lymphomas", "design": "species or system mouse", "conditions": "for reversal of DXR resistance / sensitization to DXR: RAP 4 mg/kg, silvestrol 0.2 mg/kg daily 5 days i.p.", "experimental": "Primary tumors arising in Eμ-myc/PTEN+/− and Ep-myc/PTEN+/− mice were harvested and injected into C57BL/6 (non-transgenic) mice. Upon tumor formation of palpable secondary tumors, mice were treated with a single i.p. administration of drug. The treatment schedule included an injection with either DXR ([…] in 0.9% saline), CTX (300 mg/kg in 0.9% saline), RAP (4 mg/kg in 0.9% H2O with 5% PEG/TWEEN), or a combination thereof (d1: DXR or CTX, d2: DXR or CTX and RAP, d3-5: DXR pr CTX). Mice were then palpated twice weekly for disappearance or recurrence of tumors. Data are presented as Kaplan-Meier plots in FIG. 19, and show the tumor free survival/time to relapse. Time to relapse for mice that were never tumor free was scored as ‘0’ days. […] The bottom panel has an equivalent analysis for treatment with CTX, RAP, and RAP+CTX combination.\nPrimary tumors arising in PTEN+/−Eμ-Myc mice were harvested and a total of 2×10^6 secondary lymphoma cells were injected into the tail veins of 6-8 week old female C57BL/6 (non-transgenic) mice. Upon tumor formation of palpable secondary tumors, mice were treated with i.p. administration of drug. The treatment schedule included an injection with DXR (once at 10 mg/kg), RAP (4 mg/kg daily for 5 days), or silvestrol (0.2 mg/kg daily for 5 days). RAP, DXR, and silvestrol were diluted in 5.2% PEG400/5.2% Tween 80 immediately prior to i.p. injection.\nThe ability of rocaglates to work in synergistic combination with other cytotoxic agents has not previously been tested. Silvestrol was therefore tested in combination with DXR, where silvestrol or RAP were administered once daily for 5 consecutive days, with DXR administered on day 2. Mice were then palpated twice weekly for the disappearance or recurrence of tumors.\nData are presented as Kaplan-Meier plots using the log-rank (Mantel-Cox) test for statistical significance (SigmaStat software) in FIG. 28, and show the tumor free survival/time to relapse. Time to relapse for mice that were never tumor free was scored as ‘0’ days. […]"}, "[5]": {"molecular_target": "eIF4A (Homo sapiens, UniProt P60842)", "sequence (P60842 whole entry, species assumed)": "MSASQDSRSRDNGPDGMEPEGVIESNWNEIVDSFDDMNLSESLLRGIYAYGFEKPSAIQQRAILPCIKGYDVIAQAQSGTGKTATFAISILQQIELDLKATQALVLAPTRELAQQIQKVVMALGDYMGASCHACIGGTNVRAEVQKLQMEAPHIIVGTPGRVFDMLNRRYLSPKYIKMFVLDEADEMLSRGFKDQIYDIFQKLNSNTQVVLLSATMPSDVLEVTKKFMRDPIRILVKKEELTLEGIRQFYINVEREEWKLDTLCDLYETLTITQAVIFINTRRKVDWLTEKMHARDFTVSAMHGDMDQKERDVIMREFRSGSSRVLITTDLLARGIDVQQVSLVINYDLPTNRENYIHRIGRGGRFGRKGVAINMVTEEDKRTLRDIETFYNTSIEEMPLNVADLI", "assay": "Cross-linking experiments, eIF4A binding to mRNA", "type": "biochemical", "conditions": "data not shown", "description": "Inhibition of translation initiation induces apoptosis (Li et al., 2002, Mol. Cell. Biol. 22, 2853-2861; Polunovsky et al., 2000, J. Biol. Chem. 275, 24776-24780), although the precise mechanism by which this event is triggered is not fully understood. One hypothesis is that changes in the levels or activity of eIF4F mediate the translational regulation of specific genes involved in survival and apoptosis. Gene specific translational control is thought to be mediated by the amount of secondary structure within the 5′ untranslated regions of mRNAs which dictates the eIF4Ac-requirement for ribosome recruitment (Svitkin et al., 2001, RNA 7, 382-394)."}, "[6]": {"tested_on": "HeLa cells", "assay": "[35S]-methionine incorporation into proteins (translation inhibition), 1 h incubation", "type": "cell-based", "conditions": "read-out: IC50, inhibition of [35S]-methionine incorporation into proteins", "experimental": "Results are the average of three experiments with standard error of the mean shown.\n(§1) The ability of rocaglates to induce apoptosis and inhibit protein synthesis was investigated. […] Jurkat cells were exposed to silvestrol or FA and translation inhibition and apoptosis induction were monitored. Translation initiation was measured as the inhibition of [^35S]-methionine incorporation into proteins in a dose-dependent manner. Apoptosis induction was measured as the percentage of tagged living cells measured by flow cytometry and expressed relative to vehicle treated cells.\nFor translation inhibition experiments, HeLa cells were incubated for 1 h with 10 μM anisomycin, 5 μM of the peptide FMRFA, 0.4 μM silvestrol, or vehicle (MeOH). Cells were then washed with PBS, and incubated with media lacking compound for the indicated times. Ten minutes before harvesting, [^35S]-methionine was added to the culture. The rate of [^35S]-methionine incorporation into TCA-insoluble material was measured and was expressed relative to vehicle (MeOH) treated cells."}, "[7]": {"tested_on": "Jurkat cells", "assay": "Apoptosis / living cells by flow cytometry (Annexin V, propidium iodide)", "type": "cell-based", "conditions": "13 hr exposure, concentration not given", "experimental": "(§2) Jurkat cells were incubated with the indicated silvestrol concentrations for 13 h after which time the rate of [^35S]-methionine incorporation or the percentage of living cells was measured. [^35S]-methionine was added 10 minutes before the end of the incubation period and the rate of incorporation is expressed relative to vehicle (MeOH) treated cells. Results are the average of two experiments with the error of the mean shown. The percentage of living cells was determined by flow cytometry following staining of the cells with Annexin V and propidium iodide. […]\nas §1\nJurkat cells were incubated with the indicated silvestrol concentrations for 13 h after which time the rate of [^35S]-methionine incorporation or the percentage of living cells was measured. [^35S]-methionine was added 10 min. before the end of the incubation period and the rate of incorporation is measured relative to vehicle (MeOH) treated cells. […]"}, "[8]": {"tested_on": "Jurkat cells", "assay": "[35S]-methionine incorporation rate after 13 h silvestrol", "type": "cell-based", "conditions": "Homo sapiens, 13 h incubation, read-out: IC50, inhibition of protein synthesis", "experimental": "Jurkat cells were incubated with the indicated silvestrol concentrations for 13 h after which time the rate of [^35S]-methionine incorporation or the percentage of living cells was measured. [^35S]-methionine was added 10 minutes before the end of the incubation period and the rate of incorporation is expressed relative to vehicle (MeOH) treated cells. Results are the average of two experiments with the error of the mean shown. The percentage of living cells was determined by flow cytometry following staining of the cells with Annexin V and propidium iodide. The percentage of living cells is expressed relative to vehicle (MeOH) treated and the results are the average of three experiments with the error of the mean shown.\nas §2, with “min.” for “minutes”, “measured” for “expressed”, “cells.” for “cells. Results are the average of two experiments with the error of the mean shown.”, “iodide. Silvestrol induced apoptosis in 50% of Jurkat cells following 13 hr exposure (FIG. 27).” for “iodide.”"}}, "note": "pIC50: −log10 of the molar value. Read-outs that look alike come from different tables or passages of the source.", "data": [{"smiles": "O=P1(N(CCCl)CCCl)NCCCO1", "note": "(centres unmarked) [CTX, cyclophosphamide]", "values": [{"measurement": "complete remission", "setting": "[1]", "value": "invariably entered a complete remission"}, {"measurement": "mice remaining tumor free after 100 days", "setting": "[1]", "value": "> 50", "unit": "%"}, {"measurement": "duration of remissions", "setting": "[2]; Akt lymphomas, CTX 300 mg/kg i.p.", "value": "less than 20 days"}, {"measurement": "mice achieving remissions lasting more than 60 days", "setting": "[2]; Akt lymphomas, CTX 300 mg/kg, RAP 4 mg/kg x 5 d", "value": "none"}]}, {"smiles": "COc1cccc2c1C(=O)c1c(O)c3c(c(O)c1C2=O)C[C@@](O)(C(=O)CO)C[C@@H]3O[C@H]1C[C@H](N)[C@H](O)[C@H](C)O1", "note": "[DXR, doxorubicin]", "values": [{"measurement": "tumor free and overall survival relative to control lymphomas", "setting": "[2]; Akt lymphomas, DXR 10 mg/kg i.p.", "value": "substantial reductions in tumor free and overall survival"}, {"measurement": "whole body GFP imaging of tumors", "setting": "[2]; Akt-GFP secondary tumors, day 21 post treatment", "value": "sizable tumors at several sites"}, {"measurement": "animals that had developed terminal lymphoma", "setting": "[3]", "value": "approximately 80%"}, {"measurement": "tumor response to therapy", "setting": "[3]; eIF4E lymphomas", "value": "highly resistant to DXR therapy"}, {"measurement": "tumor response to therapy", "setting": "[4]; DXR", "value": "resistant to DXR"}]}, {"smiles": "COC(=O)[C@H]1[C@@H](OC=O)[C@@]2(O)c3c(OC)cc(OC)cc3O[C@@]2(c2ccc(OC)cc2)[C@@H]1c1ccccc1", "note": "[FA, 1-O-formylaglafoline]", "values": [{"measurement": "effect on ability of eIF4A to bind mRNA", "setting": "[5]", "value": "stimulate the ability of eIF4A to bind mRNA"}, {"measurement": "pIC50", "setting": "[6]; 1 h incubation", "value": "~7.00"}]}, {"smiles": "COC(=O)[C@H]1[C@@H](O)[C@@]2(O)c3c(OC)cc(O[C@@H]4O[C@@H]([C@H](O)CO)CO[C@H]4OC)cc3O[C@@]2(c2ccc(OC)cc2)[C@@H]1c1ccccc1", "note": "[silvestrol]", "values": [{"measurement": "cells in which apoptosis was induced", "setting": "[7]", "value": 50, "unit": "%"}, {"measurement": "pIC50", "setting": "[8]", "value": 9.00}, {"measurement": "effect on ability of eIF4A to bind mRNA", "setting": "[5]", "value": "stimulate the ability of eIF4A to bind mRNA"}, {"measurement": "animals that had developed terminal lymphoma", "setting": "[3]", "value": "approximately 80%"}, {"measurement": "reversal of DXR resistance / sensitization to DXR", "setting": "[3]", "value": "reversed this drug resistance"}, {"measurement": "reversal of DXR resistance / sensitization to DXR", "setting": "[3]; listed as Silvestrol", "value": "sensitizes Eμ-Myc/eIF4E tumors to the effects of DXR"}, {"measurement": "pIC50", "setting": "[6]; Homo sapiens, HeLa, 1 h", "value": 7.70}, {"measurement": "reversal of DXR resistance / sensitization to DXR", "setting": "[4]", "value": "reverse this drug resistance"}, {"measurement": "reversal of DXR resistance / sensitization to DXR", "setting": "[4]; listed as Silvestrol", "value": "sensitizes PTEN^+/−Eμ-Myc tumors to the effects of doxorubicin"}]}]}
